Measured values from US12410157B2, “Compound useful as toll-like receptor 7 activation inhibitor” (TOYAMA PREFECTURAL UNIVERSITY, priority 2020, dated 2025).
Where “and” joins values, the source holds several entries; their conditions need not be identical. Equal values may be shown once. Read-outs that look alike come from different tables or passages of the source.

Columns and labels:
[1] = target: T1, mouse TLR7 (Mus musculus, UniProt P58681); assay: Inhibition of TLR7 activation in mouse TLR7-expressing NF-κB-GFP reporter Ba/F3 cells; type: cell-based
T1 construct: expressed in transfected cells; host or cells: Ba/F3 cells (provided by Prof. Kensuke Miyake, University of Tokyo)
T1 sequence (P58681 27-1050): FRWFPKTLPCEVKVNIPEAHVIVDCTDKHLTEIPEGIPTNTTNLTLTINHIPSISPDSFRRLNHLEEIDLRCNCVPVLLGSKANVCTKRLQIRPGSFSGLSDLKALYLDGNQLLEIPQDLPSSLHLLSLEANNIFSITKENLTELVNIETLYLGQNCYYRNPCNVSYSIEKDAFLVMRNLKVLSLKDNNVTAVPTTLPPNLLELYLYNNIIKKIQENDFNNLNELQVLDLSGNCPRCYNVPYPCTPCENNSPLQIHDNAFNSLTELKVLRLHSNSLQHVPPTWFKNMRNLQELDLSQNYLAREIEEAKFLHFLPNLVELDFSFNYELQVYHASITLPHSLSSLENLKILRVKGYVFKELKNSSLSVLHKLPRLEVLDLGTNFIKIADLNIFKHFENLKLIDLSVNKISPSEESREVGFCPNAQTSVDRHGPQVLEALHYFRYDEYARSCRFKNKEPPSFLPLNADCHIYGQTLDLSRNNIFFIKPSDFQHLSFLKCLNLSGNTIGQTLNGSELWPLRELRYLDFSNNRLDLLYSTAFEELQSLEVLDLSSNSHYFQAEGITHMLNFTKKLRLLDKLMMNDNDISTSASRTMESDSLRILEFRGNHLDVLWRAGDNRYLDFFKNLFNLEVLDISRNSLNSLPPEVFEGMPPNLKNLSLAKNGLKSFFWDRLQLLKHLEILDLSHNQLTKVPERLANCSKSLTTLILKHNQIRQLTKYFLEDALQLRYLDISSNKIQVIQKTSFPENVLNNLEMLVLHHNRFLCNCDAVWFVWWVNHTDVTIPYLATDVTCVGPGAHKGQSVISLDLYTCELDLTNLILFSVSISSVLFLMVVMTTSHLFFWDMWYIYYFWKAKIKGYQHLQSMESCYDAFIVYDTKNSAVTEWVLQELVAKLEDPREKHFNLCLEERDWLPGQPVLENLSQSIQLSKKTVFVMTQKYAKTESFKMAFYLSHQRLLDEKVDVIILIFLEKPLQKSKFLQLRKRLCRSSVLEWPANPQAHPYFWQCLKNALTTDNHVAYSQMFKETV
From the text: Mouse TLR7-expressing reporter cells (Ba/F3 cells) were used to evaluate inhibition of TLR7 activation in each derivative and CB-7. These cells were provided by Professor Kensuke Miyake (Department of Infection Genetics, Institute of Medical Science, University of Tokyo). These cells have been transfected with a reporter gene that connects GFP gene downstream of the promoter region of NF-κB. Therefore, the expression of GFP is enhanced by the addition of a ligand for TLR7 expressed by the cells. The fluorescence intensity of GFP was attenuated by the addition of each derivative, and the inhibition of TLR7 activation by each derivative was evaluated as an indicator.
Loxoribine (Alexis Biochemicals) was used as the ligand for mouse TLR7. Gardiquimod (Invivogen) was used as the ligand for human TLR7.
Ba/F3 cells cultured in RPMI 1640 medium containing 10% (v/v) fetal calf serum (FCS), 50 U/mL penicillin, 50 μg/mL streptomycin, 2 mM L-glutamine, […] 2-mercaptoethanol, 1 ng/mL interleukin-3 were aliquoted into 96-well plates so that the number of cells per well was 1.0×10^5 cells/100 μL. 50 μL of each derivative or CB-7, prepared to final concentrations of 1, 5, 10, 25, 50, and 100 µM, was added to each well. 96-well plates were incubated at 37° C. for 30 minutes in the presence of 5% CO2. Next, 250 μg/mL Roxoribin was added to each well and incubated for 18 hours. At the end of incubation, cells were washed with PBS (FACS buffer) containing 2.5% (v/v) FCS and suspended in 200 μL of FACS buffer containing 25 μg/mL […] for each cell. GFP fluorescence intensities of the cells were analyzed by flow cytometry. Flow cytometry measurement was performed on a FACSCanto™ II (Becton Dickinson) and data were analyzed with FlowJo software (Tree Star). The MFI (%) upon stimulation with roxoribin in the presence of […] derivatives or CB-7 was calculated using the MFI upon stimulation with roxoribin alone as 100%, and then IC50 (chemical compound concentration that inhibits activity by 50%) was calculated by logistic regression analysis.
The evaluation of the TLR7 activation inhibition by B2-24-4-5A·HCOOH was performed by the method described in Example 2. CB-7 and B2-24-4·HCl were used as controls.

[2] = tested on: Cytochrome P450 (CYP), mouse liver microsomes; assay: Metabolic stability (CYP) using mouse liver microsomes, HPLC; type: in vitro ADME; conditions: for Area (%) of peak: LC-UV (220 nm)
Description: For CB-7, B2-24, and B2-5A, 10 mg/mL DMSO solution was used. Each chemical compound was diluted with acetonitrile to 0.1 mg/mL, which was used as the analytical standard. Mouse liver microsomal fractions were rapidly thawed in a warm bath at 37° C. and kept on ice. Reaction buffer containing CYP cofactor was prepared on ice and mixed with the microsomal fractions. The reaction solution was preincubated at 37° C. for 5 minutes, and then the test substance solution was added and mixed well by pipetting. The volume of the reaction solution was 200 μL and the final concentration of the test substance was 0.1 mg/mL. The reaction solution was incubated at 37° C. for 30 minutes or 2 hours, and the reaction was stopped by adding 3 times the volume of acetonitrile and vortexing. After the reaction was stopped, the samples were centrifuged, and each supernatant was separated and dried in an evaporator. 50 μL of 50% acetonitrile solution was added to each solidified sample, and each sample was re-dissolved by vortexing for 5 minutes. Each redissolved solution was centrifuged, and each supernatant was subjected to HPLC analysis using a HITACHI Lachrom ELITE (HITACHI) as a HPLC system and COSMOSIL 5C18-MS-II, 4.6 mmI.D.×150 mm (nacalai tesque Co.) as a column.
Metabolic stability analysis of CB-7 and B2-24-4-5A·HCOOH was performed by the method of Example 5.

[3] = Plasma concentration in normal mice after oral administration; type: in vivo, mice (C57BL/6N); conditions: C57BL/6N mice, 1 mg orally, LC/MS/MS
Description: Plasma concentrations of CB-7 or B2-24-4-5A·HCOOH were measured in normal mice (C57BL/6N, 11 weeks old, female) after oral administration. 1 mg of CB-7 or B2-24-4-5A·HCOOH was administered orally to mice C57BL/6N. After 0.5, 1, 2, 4, or 8 hours, blood was collected from mice C57BL/6N to prepare plasma. The concentration of CB-7 or B2-24-4-5A·HCOOH in the plasma was measured by LC/MS/MS.

IC50 ([1]; Example 2, Ba/F3 reporter cells, loxoribine stimulation 18 hours, GFP MFI, read-out: IC50 of CB-7 derivatives with modified Areas a and b): 3.12 µM
IC50 ([1]; Example 5, Table 5, method of Example 2, read-out: IC50): 7.66 µM
Number of peaks detected by HPLC ([2]; Example 3, 0.1 mg/mL, 37° C., 30 minutes or 2 hours): 7
Number of peaks detected by HPLC ([2]; Example 9): 9
Area (%) of peak ([2]; Example 9, 0 h): 100%
Area (%) of peak ([2]; Example 9, incubation 0.5 h): 65.3%
Area (%) of peak ([2]; Example 9, incubation 2.0 h): 41.6% and 41.2%
Plasma concentration after 8 hours [3]: could not be detected
Structure (SMILES): C=C[C@]1(CO)CC[C@@H](C(=C)C)[C@H](c2ccc(OC)cc2)C1 [CB-7, reference compound]
